This passage reports Relative activity results from ChEMBL document CHEMBL1152100, “Enzymatic synthesis of sialyl Lex and derivatives based on a recombinant fucosyltransferase” (Bioorg Med Chem Lett, 1991).

The first test concerns the target Alpha-(1,3)-fucosyltransferase 10 (Homo sapiens) (UniProt Q6P4F1). Description: (§1) Acceptor substrate specificity toward Fucosyltransferase for the galactosides of GlcNAc with beta 1,3 or beta 1,4-linkages.
As to LACTOSE, ANHYDROUS, the Relative activity is 120.

The next test addresses T1, Alpha-(1,3)-fucosyltransferase 10 (Homo sapiens) (UniProt Q6P4F1).
T1 sequence (whole entry): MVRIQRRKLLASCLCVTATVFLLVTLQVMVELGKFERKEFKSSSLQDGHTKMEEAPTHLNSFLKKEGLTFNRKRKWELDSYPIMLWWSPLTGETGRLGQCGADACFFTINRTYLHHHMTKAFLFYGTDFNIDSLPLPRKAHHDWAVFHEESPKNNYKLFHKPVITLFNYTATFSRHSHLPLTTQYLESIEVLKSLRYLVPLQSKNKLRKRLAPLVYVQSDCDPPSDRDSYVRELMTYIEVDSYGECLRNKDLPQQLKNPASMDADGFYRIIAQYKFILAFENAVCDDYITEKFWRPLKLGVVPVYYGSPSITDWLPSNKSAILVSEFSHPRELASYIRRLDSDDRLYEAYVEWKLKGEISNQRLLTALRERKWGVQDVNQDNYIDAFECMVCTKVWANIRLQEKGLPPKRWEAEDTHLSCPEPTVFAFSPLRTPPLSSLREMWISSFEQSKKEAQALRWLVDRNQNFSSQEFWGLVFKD
The description is as §1.
On to `OC[C@@H]1OC(O)[C@@H](O)[C@H](O)[C@@H]1O` (stereo not given in full), for which the Relative activity was 7. The same measure, in the same setting: for `CC(=O)N[C@@H]1[C@@H](O)[C@H](O[C@@H]2O[C@H](CO)[C@H](O)[C@H](O)[C@H]2O)[C@@H](CO)O[C@H]1O` the value was 27. Compound `O=C[C@H](O)[C@@H](O)[C@@H](O)[C@H](O)CO` came in with a Relative activity of 6. As for `OC[C@H]1NC[C@H](O)[C@@H](O)[C@@H]1O`, the Relative activity was 5.

The compound `OC[C@H]1S[C@H](O)[C@H](O)[C@@H](O)[C@@H]1O` gave a Relative activity of 7.

`CC(=O)N[C@@H]1[C@H](O[C@H]2[C@H](O)[C@H](NC(C)=O)C(O)O[C@H]2CO)O[C@@H](CO)[C@@H](O)[C@@H]1O` (stereo not given in full) had a Relative activity of 23. Same read-out and setting: for `CC(=O)N[C@H]1[C@@H](O[C@@H]2O[C@@H](CO)[C@H](O)[C@H](O)[C@@H]2O)[C@H](O)[C@H](CO)O[C@H]1O` the value was 580; for `OC[C@H]1OC=C[C@@H](O)[C@@H]1O`, 7; for `CC(=O)N[C@H]1C(O)O[C@H](CO)[C@H](O)[C@@H]1O` (stereo not given in full), 4. Still for that read-out and setting: for `OC[C@@H]1OC(O)[C@@H](O)[C@H](O)[C@H]1O` (stereo not given in full) the value was 3; for `C=CCO[C@@H]1O[C@@H](CO)[C@@H](O)[C@H](O)[C@@H]1O`, < 1; for `C[C@@H]1O[C@@H](O[C@@H]2[C@H](O[C@H]3[C@H](O)[C@H](O)[C@@H](O)O[C@H]3CO)O[C@@H](CO)[C@H](O)[C@@H]2O)[C@@H](O)[C@@H](O)[C@@H]1O`, 250. Same read-out and setting: next, `OC[C@H]1OC(O)[C@H](O)[C@@H](O)[C@@H]1O` (stereo not given in full): 5. Turning to `OC[C@H]1OC=C[C@@H](O)[C@H]1O`, the Relative activity turned out to be 2.

In turn, `CC(=O)N[C@@H]1[C@H](OC[C@@H]2O[C@@H](O[C@H]3[C@H](O)[C@H](O)C(O)O[C@H]3CO)[C@@H](O)[C@@H](O)[C@H]2O)O[C@@H](CO)[C@@H](O)[C@@H]1O` (stereo not given in full) displayed a Relative activity of 13. The same measure, in the same setting: next, `OC[C@@H]1O[C@@H](O[C@H]2[C@H](O)[C@H](O)[C@H](O)S[C@H]2CO)[C@@H](O)[C@@H](O)[C@H]1O`: 310. Compound `CC(=O)N[C@H]1C(O)O[C@H](CO)[C@@H](O)[C@@H]1O` (stereo not given in full) gave a Relative activity of 3. The same measure, in the same setting: for `CC(=O)N[C@H]1[C@H]([C@H](O)[C@H](O)CO)O[C@@](O[C@@H]2[C@H](O)[C@H](O[C@H]3[C@H](O)[C@H](NC(C)=O)C(O)O[C@H]3CO)O[C@@H](CO)[C@@H]2O)(C(=O)O)C[C@H]1O` (stereo not given in full) the value was 60.

In a further test the target is T1, Alpha-(1,3)-fucosyltransferase 10 (Homo sapiens). Description: Compound was evaluated for acceptor substrate specificity toward Fucosyltransferase for the galactosides of GlcNAc with beta 1,3 or beta 1,4-linkages when applied 2 uM of GDP-Fuc consumed per hr.
On to `CC(=O)N[C@@H]1[C@@H](O)[C@H](O[C@@H]2O[C@H](CO)[C@H](O)[C@H](O)[C@H]2O)[C@@H](CO)O[C@H]1O`, for which the Relative activity worked out at 100.
